Reference: the NIST ThermoML archive (doi:10.1021/je049585t)
Numbers after ± are expanded uncertainties.

What was measured:
[1] = Crystal
[2] = Molar enthalpy of transition or fusion; settings: Crystal

Normal melting temperature [1]: 62.39 ± 0.83 °C
Molar enthalpy of transition or fusion [2]: 4.223 ± 0.0239 kcal/mol
Compound: CC1=CCC2C(=O)OC(=O)C2C1 (configuration not stated) [4-methyl-cyclohex-4-ene-1, 2-dicarboxylic acid anhydride]
